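In this assay, cells in 96-well plates receive the compound at five concentrations for 48 hours. Endpoints are linearly interpolated between the surrounding concentrations. At the TGI there is no net growth.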
Legend:
Test in all cases: growth of human tumour cells (NCI), 48 h
[1] = tested on: T-47D breast
[2] = tested on: HT29 colon
[3] = tested on: MDA-N
[4] = tested on: NCI/ADR-RES ovarian
[5] = tested on: MOLT-4 leukemia
[6] = tested on: UO-31 renal
[7] = tested on: RXF 393 renal
[8] = tested on: OVCAR-3 ovarian
[9] = tested on: SNB-75 CNS
[10] = tested on: K-562 leukemia
[11] = tested on: MALME-3M melanoma
[12] = tested on: MDA-MB-435
[13] = tested on: OVCAR-8 ovarian
[14] = tested on: SNB-19 CNS
[15] = tested on: SK-MEL-28 melanoma
[16] = tested on: SF-268 CNS
[17] = tested on: EKVX NSCLC
[18] = tested on: HCT-15 colon
[19] = tested on: 786-0 renal
[20] = tested on: SK-MEL-5 melanoma
[21] = tested on: MCF7 breast
[22] = tested on: SF-539 CNS
[23] = tested on: A549 NSCLC
[24] = tested on: HCT-116 colon
[25] = tested on: SR leukemia
[26] = tested on: CCRF-CEM leukemia
[27] = tested on: HCC-2998 colon
[28] = tested on: NCI-H23 lung
[29] = tested on: A498 renal
[30] = tested on: RPMI-8226 leukemia
[31] = tested on: HOP-62 NSCLC
[32] = tested on: NCI-H226 lung
[33] = tested on: HOP-92 NSCLC
[34] = tested on: NCI-H522 lung
[35] = tested on: MDA-MB-231 breast
[36] = tested on: TK-10 renal
[37] = tested on: LOX IMVI melanoma
[38] = tested on: HL-60(TB) leukemia
[39] = tested on: UACC-62 melanoma
[40] = tested on: SK-MEL-2 melanoma
[41] = tested on: HS 578T breast
[42] = tested on: SN12C renal
[43] = tested on: SF-295 CNS
[44] = tested on: NCI-H460 lung
[45] = tested on: OVCAR-5 ovarian
[46] = tested on: M14 melanoma
[47] = tested on: PC-3 prostate
[48] = tested on: SW-620 colon
[49] = tested on: CAKI-1 renal
[50] = tested on: OVCAR-4 ovarian
[51] = tested on: U251 CNS
[52] = tested on: ACHN renal
[53] = tested on: DU-145 prostate
[54] = tested on: KM12 colon
[55] = tested on: UACC-257 melanoma
[56] = tested on: COLO 205 colon
[57] = tested on: BT-549 breast
[58] = tested on: SK-OV-3 ovarian
[59] = tested on: IGROV1 ovarian

O=C(c1ccc(Cl)cc1)N(Cc1cccnc1)C(=S)N(Cc1cccnc1)C(=O)c1ccc(Cl)cc1
TGI [1]: > 100 µM | TGI [2]: 76.9 µM | TGI [3]: 56.6 µM | TGI [4]: > 100 µM | TGI [5]: > 100 µM | TGI [6]: 98.4 µM | TGI [7]: > 100 µM | TGI [8]: > 100 µM | TGI [9]: > 100 µM | TGI [10]: > 100 µM | TGI [11]: > 100 µM | TGI [12]: > 100 µM | TGI [13]: 85.3 µM | TGI [14]: > 100 µM | TGI [15]: > 100 µM | TGI [16]: 79.5 µM | TGI [17]: > 100 µM | TGI [18]: > 100 µM | TGI [19]: 48.2 µM | TGI [20]: 90.1 µM | TGI [21]: > 100 µM | TGI [22]: 50.4 µM | TGI [23]: > 100 µM | TGI [24]: 80.3 µM | TGI [25]: > 100 µM | TGI [26]: > 100 µM | TGI [27]: 61.3 µM | TGI [28]: > 100 µM | TGI [29]: 91.5 µM | TGI [30]: > 100 µM | TGI [31]: > 100 µM | TGI [32]: > 100 µM | TGI [33]: > 100 µM | TGI [34]: 69.1 µM | TGI [35]: 59.3 µM | TGI [36]: > 100 µM | TGI [37]: 47.4 µM | TGI [38]: 85.2 µM | TGI [39]: > 100 µM | TGI [40]: 49 µM | TGI [41]: > 100 µM | TGI [42]: 48.1 µM | TGI [43]: > 100 µM | TGI [44]: > 100 µM | TGI [45]: > 100 µM | TGI [46]: 59.7 µM | TGI [47]: 90.3 µM | TGI [48]: > 100 µM | TGI [49]: > 100 µM | TGI [50]: 79.7 µM | TGI [51]: 53.6 µM | TGI [52]: > 100 µM | TGI [53]: > 100 µM | TGI [54]: > 100 µM | TGI [55]: > 100 µM | TGI [56]: 43.4 µM | TGI [57]: 51 µM | TGI [58]: > 100 µM

Cc1ccc(S(=O)(=Nc2ccccc2)C(C(C)C)C(C)(C)Cl)cc1 (stereo unspecified)
TGI [1]: > 50 µM | TGI [2]: > 50 µM | TGI [3]: > 50 µM | TGI [4]: > 50 µM | TGI [5]: 32.3 µM | TGI [6]: > 50 µM | TGI [7]: > 50 µM | TGI [8]: > 50 µM | TGI [9]: > 50 µM | TGI [10]: > 50 µM | TGI [11]: > 50 µM | TGI [12]: 38.6 µM | TGI [13]: > 50 µM | TGI [14]: > 50 µM | TGI [16]: > 50 µM | TGI [17]: 47.3 µM | TGI [18]: > 50 µM | TGI [19]: > 50 µM | TGI [20]: 16.7 µM | TGI [21]: > 50 µM | TGI [22]: > 50 µM | TGI [23]: > 50 µM | TGI [24]: > 50 µM | TGI [25]: 49.7 µM | TGI [26]: > 50 µM | TGI [27]: > 50 µM | TGI [28]: 46.5 µM | TGI [29]: > 50 µM | TGI [30]: > 50 µM | TGI [31]: > 50 µM | TGI [32]: 45.9 µM | TGI [33]: > 50 µM | TGI [34]: > 50 µM | TGI [35]: > 50 µM | TGI [36]: > 50 µM | TGI [37]: > 50 µM | TGI [38]: 22 µM | TGI [39]: > 50 µM | TGI [40]: 43.9 µM | TGI [41]: > 50 µM | TGI [42]: > 50 µM | TGI [43]: > 50 µM | TGI [59]: > 50 µM | TGI [44]: 45.4 µM | TGI [45]: > 50 µM | TGI [46]: > 50 µM | TGI [47]: > 50 µM | TGI [48]: > 50 µM | TGI [49]: > 50 µM | TGI [50]: > 50 µM | TGI [51]: > 50 µM | TGI [52]: > 50 µM | TGI [53]: > 50 µM | TGI [54]: > 50 µM | TGI [55]: > 50 µM | TGI [56]: 7.56 µM | TGI [57]: > 50 µM | TGI [58]: > 50 µM

Reference: PubChem BioAssay (NCI)
